In patent publication US8097733B2, “Pyrazole derivatives as 5-LO-inhibitors” (Pfizer Inc., priority 2007, dated 2012):

How the values were obtained:
recombinant human 5-LOX = molecular target: T1, recombinant human 5-LOX (Homo sapiens, UniProt P09917); test: Fluorescence Intensity 5-LOX Enzyme Assay; assay type: biochemical; conditions: crude lysate of recombinant human 5-LOX; highest inhibitor concentration tested typically 25 μM
T1 sequence (P09917 1-674): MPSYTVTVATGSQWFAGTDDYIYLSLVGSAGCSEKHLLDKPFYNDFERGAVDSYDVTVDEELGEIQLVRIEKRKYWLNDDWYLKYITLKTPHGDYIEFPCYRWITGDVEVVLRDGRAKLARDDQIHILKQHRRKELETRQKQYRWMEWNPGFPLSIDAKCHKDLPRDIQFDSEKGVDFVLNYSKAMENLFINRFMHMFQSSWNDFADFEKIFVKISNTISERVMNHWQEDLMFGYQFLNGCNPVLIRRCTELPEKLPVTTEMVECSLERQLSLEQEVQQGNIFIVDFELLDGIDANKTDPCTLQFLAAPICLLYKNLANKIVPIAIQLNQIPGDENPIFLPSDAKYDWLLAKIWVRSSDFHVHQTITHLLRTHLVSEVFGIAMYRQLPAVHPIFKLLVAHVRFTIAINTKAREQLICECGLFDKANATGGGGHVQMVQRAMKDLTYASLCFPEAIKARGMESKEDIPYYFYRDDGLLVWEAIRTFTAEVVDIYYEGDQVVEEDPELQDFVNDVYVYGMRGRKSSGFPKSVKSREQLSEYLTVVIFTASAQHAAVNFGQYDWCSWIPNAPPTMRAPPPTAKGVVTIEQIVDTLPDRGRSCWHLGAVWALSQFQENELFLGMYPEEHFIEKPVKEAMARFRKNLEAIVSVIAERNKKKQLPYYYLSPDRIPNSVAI
Text: Bio Data Assays for Allergic and Non Allergic Airways Diseases Fluorescence Intensity 5-LOX Enzyme Assay
The enzyme assay is based on the oxidation of the non-fluorescent compound 2′7′-dichlorodihydrofluorescein diacetate (H2DCFDA) to the fluorescent 2′,7′-dichlorofluorescein by 5-LOX in an arachidonic acid-dependent reaction. Ester cleavage of the acetate groups of the substrate H2DCFDA must occur prior to oxidation. This is achieved through use of a crude cell lysate preparation of recombinant human 5-LOX. The enzyme assay ([…]) contained 50 mM Tris (pH 7.5), 2 mM CaCl2, 2 mM EDTA, 3 μM arachidonic acid (Nu-Chek Prep; #S-1133), 10 μM ATP, 10 μM H2DCFDA (Invitrogen; #D399), inhibitor (varying concentration) and recombinant human 5-LOX enzyme (1.25 μL crude lysate per well).
Inhibitors (dissolved in DMSO) were plated into a 384-well assay plate (Corning #3654) at 1 μL followed by a 20 μL addition of a solution containing 5-LO enzyme and H2DCFDA. Enzyme and H2DCFDA were pre-incubated for 5 min to allow time for acetate group cleavage of the dye prior to addition to the assay plate. After a 10 min pre-incubation of inhibitor and enzyme/dye mix, the assay was initiated by the addition of a substrate solution containing arachidonic acid and ATP. The enzymatic reaction was run for 20 min at room temperature and terminated by the addition of 40 μL of acetonitrile. Assay plates were read in a plate reader using standard wavelengths for fluorescein. IC50s of inhibitors were calculated using a 4-parameter fit using 7 inhibitor concentrations in duplicate with 3-fold serial dilutions. Controls on each plate included no inhibitor (zero percent effect) and 25 μM C J-13610 (one hundred percent effect). The highest inhibitor concentration tested was typically 25 μM. The final DMSO concentration in the assay was 2.5%.

[1] = tested on: human whole blood (leukotriene and prostaglandin levels); test: Eicosanoid production from human whole blood; assay type: cell-based; conditions: human whole blood stimulated with calcium ionophore A23187 and arachidonic acid; ELISA
Method: Human whole blood is collected in 10 ml heparin tubes (Vacutainer, Becton Dickenson). Collected blood is pooled and 80 μL is dispensed into each well of 384 well polypropylene plates. A PlateMate is used to add 2 μL of compound solution in DMSO to the 80 μL of blood in the polypropylene plates. The plate, with blood and compound added, is incubated at room temperature for 10 minutes. 2 μL of a calcimycin (800 ng/ml) (A23187 C-7522, Sigma) and arachidonic acid (30 μM) (NU-Chek PREP, INC. S-1133) solution in 60% ethanol is then added to the blood using a Micromultidrop. The plates are then incubated at 37° C. in a shallow water bath for 15 minutes. Plates are then spun at 800 g for 10 minutes at 4° C. Supernatant is removed and assayed by Elisa (Caymen Chemical).
Eicosanoid Production from Human Whole Blood:
Human whole blood was collected from healthy or asthmatic human donors in 10 ml heparinized tubes (Vacutainer tubes; Becton Dickenson, Franklin Lakes, N.J.). Collected blood was pooled and 80 μL was dispensed into each well of 384 well polypropylene plates using a Multi-prop™ 384-well dispenser (Titertek, Huntsville, Ala.). Varying concentrations of compounds were dissolved in DMSO then 2 μL/well was added to the blood using a PlateMate Plus™ automated pipetting station (Matrix Technologies, Hudson, N.H.). The compounds were preincubated with the blood at room temperature for 10 minutes followed by stimulation with 40 μM calcium ionophore (A23187, Sigma Chemical Co, St. Louis, Mo., Cat. # C-7522) and 30 μM arachidonic acid (S-1133, NU-Chek PREP, Inc., Elysian, MN, Cat. # S-1133) dissolved in 60% ethanol. After 15 min incubation at 37° C. in a shallow water bath, the blood was centrifuged at 8009 for 10 minutes at 4° C., the supernatants collected, and leukotriene and prostaglandin levels measured by ELISA according to the manufacturer's directions (Cayman Chemical Company, Ann Arbor, Mich.). The assay was performed at a final concentration of 2.5% DMSO.

Compound	IC50 (recombinant human 5-LOX) [nM]	IC50 [1] [nM]
Cn1nccc1-c1ccc(Sc2cccc(C3(C(N)=O)CCOCC3)c2F)cc1 [17(7), 4-(2-fluoro-3-{[4-(1-methyl-1H-pyrazol-5-yl)phenyl]thio}-phenyl)tetrahydro-2H-pyran-4-carboxamide]	126	256
Cn1nccc1-c1ccc(Sc2cc(F)cc(C3(C(N)=O)CCOCC3)c2F)cc1 [19(10), 4-(2,5-difluoro-3-{[4-(1-methyl-1H-pyrazol-5-yl)phenyl]-thio}phenyl)tetrahydro-2H-pyran-4-carboxamide]	50.5	480
C[C@H]1C[C@@](C#N)(c2ccc(F)c(Sc3ccc(-c4ccnn4C)cc3)c2F)CCO1 [28(2), (2S,4R)-4-(2,4-difluoro-3-(4-(1-methyl-1H-pyrazol-5-yl)phenylthio)phenyl)-2-methyl-tetrahydro-2H-pyran-4-carbonitrile]	38.9	42.2
NC(=O)C1(c2cccc(Sc3ccc(-c4ccnn4C4CCCC4)cc3)c2)CCOCC1 [Example 3, 4-(3-{[4-(1-cyclopentyl-1H-pyrazol-5-yl)phenyl]thio}phenyl)tetrahydro-2H-pyran-4-carboxamide]	102	179
NC(=O)C1(c2cccc(Sc3ccc(-c4ccnn4C4CCCCCC4)cc3)c2)CCOCC1 [Example 4, 4-(3-{[4-(1-cycloheptyl-1H-pyrazol-5-yl)phenyl]thio}phenyl)tetrahydro-2H-pyran-4-carboxamide]	12.5	260
NC(=O)C1(c2cccc(Sc3ccc(-c4ccnn4C4CCCCC4)cc3)c2)CCOCC1 [Example 5, 4-(3-{[4-(1-cyclohexyl-1H-pyrazol-5-yl)phenyl]thio}phenyl)tetrahydro-2H-pyran-4-carboxamide]	15.9	410
NC(=O)C1(c2cccc(Sc3ccc(-c4ccnn4CC4CC4)cc3)c2)CCOCC1 [Example 6, 4-[3-({4-[1-(cyclopropylmethyl)-1H-pyrazol-5-yl]phenyl}thio)phenyl]tetrahydro-2H-pyran-4-carboxamide]	86.1	225
NC(=O)C1(c2cccc(Sc3ccc(-c4ccnn4CC4CCCC4)cc3)c2)CCOCC1 [Example 7, 4-[3-({4-[1-(cyclopentylmethyl)-1H-pyrazol-5-yl]phenyl}thio)phenyl]tetrahydro-2H-pyran-4-carboxamide]	38.6	78.5
CCn1nccc1-c1ccc(Sc2cccc(C3(C(N)=O)CCOCC3)c2)cc1 [Example 8, 4-(3-{[4-(1-ethyl-1H-pyrazol-5-yl)phenyl]thio}phenyl)tetrahydro-2H-pyran-4-carboxamide]	14	253
CC(C)n1nccc1-c1ccc(Sc2cccc(C3(C(N)=O)CCOCC3)c2)cc1 [Example 9]	14.8	208
Cn1nccc1-c1ccc(Sc2cccc(C3(C(N)=O)CCOCC3)c2)c(F)c1 [Example 12, 4-(3-{[2-Fluoro-4-(1-methyl-1H-pyrazol-5-yl)phenyl]thio}phenyl)tetrahydro-2H-pyran-4-carboxamide]	454	267
Cn1nccc1C(=O)c1ccc([S+]([O-])c2cccc(C3(C(N)=O)CCOCC3)c2)cc1 (stereo not drawn) [Example 66, 4-[3-({4-[(1-methyl-1H-pyrazol-5-yl)carbonyl]phenyl}sulfinyl)phenyl]tetrahydro-2H-pyran-4-carboxamide]	≥ 25000	
C[C@H]1C[C@](C#N)(c2ccc(F)c(Sc3ccc(-c4ccnn4C)cc3)c2)CCO1 [Example 74, (2S,4S)-4-(4-fluoro-3-{[4-(1-methyl-1H-pyrazol-5-yl)phenyl]thio}phenyl)-2-methyltetrahydro-2H-pyran-4-carbonitrile]	≥ 25000	
C[C@@H]1C[C@](C(N)=O)(c2ccc(F)c(Sc3ccc(-c4ccnn4C)cc3)c2)CCO1 [Example 75, (2R,4S)-4-(4-fluoro-3-{[4-(1-methyl-1H-pyrazol-5-yl)phenyl]thio}phenyl)-2-methyltetrahydro-2H-pyran-4-carboxamide]	12200	

Next, values leading:

IC50 (recombinant human 5-LOX) [nM]	IC50 [1] [nM]	Compound
6380		C[C@H]1C[C@](C(N)=O)(c2ccc(F)c(Sc3ccc(-c4ccnn4C)cc3)c2)CCO1 [Example 77, (2S,4S)-4-(4-fluoro-3-{[4-(1-methyl-1H-pyrazol-5-yl)phenyl]thio}phenyl)-2-methyltetrahydro-2H-pyran-4-carboxamide]
3310		C[C@H]1C[C@](C(N)=O)(c2cccc(Sc3ccc(-c4ccnn4C)cc3)c2F)CCO1 [Example 79, (2S,4S)-4-(2-fluoro-3-{[4-(1-methyl-1H-pyrazol-5-yl)phenyl]thio}phenyl)-2-methyltetrahydro-2H-pyran-4-carboxamide]
3540		Cn1nccc1-c1ccc(Sc2cccc(C3(C(N)=O)CCOC(C)(C)C3)c2)cc1 (stereo not drawn) [Example 80, 2,2-dimethyl-4-(3-{[4-(1-methyl-1H-pyrazol-5-yl)phenyl]thio}phenyl)tetrahydro-2H-pyran-4-carboxamide]
7560		C[C@H]1C[C@](C(N)=O)(c2cccc(Sc3ccc(-c4ccnn4C)cc3)c2)CCO1 [Example 81, (2S,4S)-2-methyl-4-(3-{[4-(1-methyl-1H-pyrazol-5-yl)phenyl]thio}phenyl)tetrahydro-2H-pyran-4-carboxamide]
10300		C[C@@H]1C[C@@](C#N)(c2cccc(Sc3ccc(-c4ccnn4C)cc3)c2)CCO1 [Example 83, (2R,4R)-2-methyl-4-(3-{[4-(1-methyl-1H-pyrazol-5-yl)phenyl]thio}phenyl)tetrahydro-2H-pyran-4-carbonitrile]
2230		C[C@H]1C[C@](C#N)(c2cccc(Sc3ccc(-c4ccnn4C)cc3)c2)CCO1 [Example 84, (2S,4S)-2-methyl-4-(3-{[4-(1-methyl-1H-pyrazol-5-yl)phenyl]thio}phenyl)tetrahydro-2H-pyran-4-carbonitrile]
2750		Cn1nccc1C(=O)c1ccc(Sc2cccc(C3(C(N)=O)CCOCC3)c2)c(C#N)c1 [Example 85, 4-[3-({2-cyano-4-[(1-methyl-1H-pyrazol-5-yl)carbonyl]phenyl}thio)phenyl]tetrahydro-2H-pyran-4-carboxamide]
≥ 25000		Cn1nccc1-c1ccc([S+]([O-])c2cccc(C3(C(N)=O)CCOCC3)c2)cc1Cl (stereo not drawn) [Example 89, 4-(3-{[3-chloro-4-(1-methyl-1H-pyrazol-5-yl)phenyl]sulfinyl}phenyl)tetrahydro-2H-pyran-4-carboxamide]
